# Experimental data taken from patent US20190040101A1, “COMPOUND FOR TREATING SEQUELAE OF ISCHEMIC CEREBRAL STROKE” (priority 2015, published 2019).
# Residues, ends and D or L forms follow the SMILES beside them.
# Key:
# [1] = Body weight of rats in the 1.5-hour ischemia/reperfusion model; type: in vivo, Sprague-Dawley (SD) rats; conditions: 3.6 mg/kg intraperitoneal once a day
# Description: (§1) Sprague-Dawley (SD) rats, male, weighing 280-320 g, clean, feeding, conditions: room temperature of 20-25° C., humidity of 30-60%, well ventilated, ad libitum diet; the animals were acclimatized in the feeding environment for three days prior to the experiment.
# (§2) The rats were anesthetized with 4% chloral hydrate (350 mg/kg, ip.) and then were fixed in a supine position. A midline ventral neck incision was made, the right common carotid artery was separated and snared with two sutures for further use. Then, the internal carotid artery and external carotid artery were separated, and the external carotid artery was ligatured. The separated common carotid artery was ligatured at its proximal end with a thread, and the blood flow of the same was blocked at its distal end with a bulldog clamp. A small opening was cut therebetween and a nylon suture (4-0) which is heated at one end into a bead-like shape (having a diameter of <0.3 mm) was inserted into the small opening. The bulldog clamp was removed, and the nylon suture was gently advanced to the origin of the anterior cerebral artery (18-20 mm), thereby causing arterial ischemia in brain by blocking the blood supply of the cerebral artery. The skin was sutured and was sterilized with tincture of iodine. […]
# [2] = test system: right cerebral artery ischemia/reperfusion model in rats; assay: Neurologic deficit score in the rat 1.5-hour ischemia/reperfusion model; type: in vivo, Sprague-Dawley (SD) rats; conditions: 3.6 mg/kg intraperitoneal once a day
# Description: as §1
# as §2, with “opening.” for “opening. The bulldog clamp was removed, and the nylon suture was gently advanced to the origin of the anterior cerebral artery (18-20 mm), thereby causing arterial ischemia in brain by blocking the blood supply of the cerebral artery. The skin was sutured and was sterilized with tincture of iodine.”
# Neurologic deficit scores were assessed for the above experimental animals according to the following procedure before the beginning of experiment and 24 hours, 1 day, 3 days, 7 days, 14 days, 28 days, 56 days, and 112 days after the beginning of experiment; Score rules: see Zea Longer score and NSS score, full score of 10; • (i) Lifting an animal by tail: (full score of 1) […]
smiles,measurement,setting,value
CC(C)CC(NC(=O)C(CCC(N)=O)NC(=O)C(NC(=O)C(CO)NC(=O)C(Cc1c[nH]cn1)NC(=O)C(N)C(C)C)C(C)C)C(=O)NC(Cc1ccc(O)cc1)C(=O)O (stereo not shown) [compound of formula (III)] (H-VHSVQLY-OH; configuration not given here),weight change compared to the model group,"[1]; I1.5R+1 week+dosing for 4 weeks, FIG. 3",gradually increased weight
same,weight change compared to the model group,"[1]; I1.5R+2 weeks+dosing for 4 weeks, weight data not demonstrative (groups already differed before dosing), FIG. 5",gradually increased weight
same,neuroethology (neurologic deficit) score compared to the model group,"[2]; I1.5R+1 week+dosing for 4 weeks, statistically significant in weeks 2, 3, 4, 5 and 7 after the operation, FIG. 4",gradually declined neuroethology score
same,neurological score compared to the model group,"[2]; I1.5R+2 weeks+dosing for 4 weeks, statistically significant at the fifth week after the operation, FIG. 6",declined from the beginning of the administration
